Earlier results, collected in patent US4554271A, “Use of high doses of derivatives of 6α-methylprednisolone for the acute treatment of stroke syndrome” (The Upjohn Company, priority 1984, dated 1985).
Counter-ions that a name gives are not always drawn. Like-named read-outs stand apart in the source and are kept apart here.

Key:
[1] = system: canine middle cerebral artery (MCA); settings: canine MCA embolization, embolectomy at 6 hours; DMSO 2 gm/kg
[2] = system: (Na^+ +K^+)-ATPase; settings: cat spinal cord; large intravenous doses
[3] = system: motor neuron; settings: cat; large intravenous doses
[4] = system: lipid peroxide formation; settings: cat spinal cord; large intravenous doses
[5] = system: cerebral ischemia; settings: anesthetized gerbil; 35 mg/kg; bilateral occlusion of the carotid arteries
[6] = system: cardiac, renal, and hepatic ischemia; settings: in vivo
[7] = single 30-mg/kg dose
[8] = system: lipid peroxidation
[9] = system: cyclic guanosine 3',5'-monophosphate (cyclic GMP); settings: cat
[10] = system: (Na^+ +K^+)-ATPase; settings: for (Na^+ +K^+)-ATPase activity in the injured cord: cat
[11] = system: spinal cord-injured animals; settings: comparable doses (15 to 30 mg/kg) soon after injury; other studies
[12] = system: adenylate cyclase systems
[13] = system: ischemia-induced neurological deficits; settings: gerbils; title of cited paper
[14] = 15- or 30-mg/kg intravenous dose given 30 minutes after trauma, earlier studies

**Q.** Which “infarction of the brain” value [1] does the source give for `C[S+](C)[O-]` [DMSO, dimethyl sulfoxide] here?
**A.** Its value is “no infarction”.

**Q.** For `C[C@H]1C[C@@H]2[C@H]([C@@H](O)C[C@@]3(C)[C@H]2CC[C@]3(O)C(=O)COC(=O)CCC(=O)O)[C@@]2(C)C=CC(=O)C=C12` [methylprednisolone sodium succinate, 1-dehydro-6α-methylhydrocortisone 21-hemisuccinate sodium salt], which “spinal cord (Na^+ +K^+)-ATPase activity” value [2] is on record?
**A.** The value was “enhancement”.

**Q.** And the “impulse conduction along the myelinated portion of the motor axon” value [3]?
**A.** The value was “accelerated”.

**Q.** What about the “motor neuron resting membrane potentials” value [3] of the same molecule?
**A.** The value was “hyperpolarization”.

**Q.** What about the lipid peroxide formation [4] of the same molecule?
**A.** The lipid peroxide formation was “attenuation”.

**Q.** What does the source list for `C[C@H]1C[C@@H]2[C@H]([C@@H](O)C[C@@]3(C)[C@H]2CC[C@]3(O)C(=O)CO)[C@@]2(C)C=CC(=O)C=C12` [methylprednisolone, 1-Dehydro-6α-methylhydrocortisone]?
**A.** duration of its pharmacological actions (cat, single intravenous administration): roughly 3 hours; spinal cord tissue levels of methylprednisolone at which each of the effects is apparent (cat, single intravenous dose of 30 mg/kg): around 1.3 μg/gm wet weights; half-life in cat spinal cord (single intravenous administration, 30 mg/kg): roughly 3 hours; survival after cerebral ischemia [5]: improved survival; relieving cardiac, renal, and hepatic ischemia [6]: effective; harmful effects [7]: virtually without harmful effects; lipid peroxidation at 1 hour after injury [8, 14]: significantly reduce; injury-induced increase in fluorescence (lipid peroxy products) in spinal segment ([8]; cat, 15 or 30 mg/kg i.v. at 30 minutes after injury, read at 1 hour): completely prevented; injury-induced increase in cyclic GMP content in spinal segment ([9]; 15 or 30 mg/kg i.v. at 30 minutes after injury, read at 1 hour): completely prevented; elevation in cyclic GMP ([9]; 60-mg/kg dose): did not prevent; (Na^+ +K^+)-ATPase activity at 1 hour after injury [10, 14]: enhance; (Na^+ +K^+)-ATPase activity in the injured cord ([10]; 30-mg/kg dose): striking increase; (Na^+ +K^+)-ATPase activity in the injured cord ([10]; 60-mg/kg dose): depression in activity; recovery and tissue preservation in spinal cord-injured animals [11]: significantly greater; damaging effect (adenylate cyclase systems) of 60 minutes occlusion plus 15 minutes recirculation ([12]; barbiturate-anesthetized gerbils, pretreatment 30 mg/kg, 30 min. prior to carotid ligation): prevented; chronic (7 days) enzyme damage elicited by 15 minutes of bilateral stroke ([12]; gerbils, preliminary work): prevented

**Q.** With `C=CCN1CC[C@]23c4c5ccc(O)c4O[C@H]2C(=O)CC[C@@]3(O)[C@H]1C5` [naloxone] as the molecule, how does the “reversal of ischemia-induced neurological deficits” value [13] read?
**A.** The value was “Failure”.
